Measured values: US8822517B2, “Arylosulfonamides for the treatment of CNS diseases” (Adamed SP. Z O.O., priority 2010, dated 2014)

Legend:
[1] = biological target: T1, muscarinic M3 receptor (Homo sapiens, UniProt P20309); test: Binding assay M3 (h), [3H]4-DAMP, CHO cells; conditions: read-out: M3 [%]
T1 construct: expressed in transfected cells; host or cells: CHO cells
In short: (§1)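 Compounds tested at a single 1×10^−6 M concentration against the listed radioligands; bound label counted by scintillation, with non-specific binding defined by excess unlabelled ligand and subtracted from total.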

[2] = biological target: T2, serotoninergic receptor 5-HT2C (Homo sapiens, UniProt P28335); test: Binding assay 5-HT2C (h), [3H]mesulergine, HEK-293 cells; conditions: read-out: 5-HT2C [%]
T2 construct: expressed in transfected cells; host or cells: HEK-293 cells
T2 sequence (P28335 33-458): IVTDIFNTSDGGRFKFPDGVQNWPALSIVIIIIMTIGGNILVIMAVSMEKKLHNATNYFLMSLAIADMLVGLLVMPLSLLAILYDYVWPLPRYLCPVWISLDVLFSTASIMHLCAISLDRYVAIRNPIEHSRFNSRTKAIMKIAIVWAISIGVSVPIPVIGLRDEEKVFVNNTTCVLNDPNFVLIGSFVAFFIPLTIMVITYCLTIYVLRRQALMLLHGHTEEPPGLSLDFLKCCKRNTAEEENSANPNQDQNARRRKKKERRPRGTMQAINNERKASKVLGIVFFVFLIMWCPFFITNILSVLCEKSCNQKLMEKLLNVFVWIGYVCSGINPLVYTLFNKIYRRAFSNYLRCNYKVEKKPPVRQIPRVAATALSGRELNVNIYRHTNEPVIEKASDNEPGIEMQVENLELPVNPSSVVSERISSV
In short: as §1

[3] = biological target: dopaminergic D2 receptor (Homo sapiens, UniProt P14416); test: Cellular functional assay, dopaminergic D2 receptor (agonism/antagonism); type: cell-based; conditions: HEK293; for activation at 1 µM: agonist effect, percent of control specific agonist response (3 μM dopamine for control), 1×10^−6 M, D2S (h), HEK-293 cells, read-out: D2-ag [%]; for inhibition at 1 µM: read-out: D2-antag. [%]
Procedure: (§2) The compounds were tested at the concentration of 1×10^−6M.
(§3) In the Tables ag refers to agonism, and antag to antagonism).

[4] = biological target: dopaminergic D3 receptor (Homo sapiens, UniProt P35462); test: Cellular functional assay, dopaminergic D3 receptor (agonism/antagonism); type: cell-based; conditions: for inhibition at 1 µM: CHO, read-out: D3-antag. [%]; for activation at 1 µM: agonist effect, percent of control specific agonist response (300 nM dopamine for control), 1×10^−6 M, D3 (h), CHO cells, read-out: D3-ag [%]
Procedure: as §2, §3

[5] = biological target: T3, adrenergic α1A receptor (Homo sapiens, UniProt P35348); test: Cellular functional assay, adrenergic α1A receptor (agonism/antagonism); type: cell-based; conditions: for activation at 1 µM: agonist effect, percent of control specific agonist response, compounds tested at 1×10^−6M, read-out: α1A -ag [%]; for inhibition at 1 µM: read-out: α1A -antag. [%]
T3 sequence (P35348 1-466): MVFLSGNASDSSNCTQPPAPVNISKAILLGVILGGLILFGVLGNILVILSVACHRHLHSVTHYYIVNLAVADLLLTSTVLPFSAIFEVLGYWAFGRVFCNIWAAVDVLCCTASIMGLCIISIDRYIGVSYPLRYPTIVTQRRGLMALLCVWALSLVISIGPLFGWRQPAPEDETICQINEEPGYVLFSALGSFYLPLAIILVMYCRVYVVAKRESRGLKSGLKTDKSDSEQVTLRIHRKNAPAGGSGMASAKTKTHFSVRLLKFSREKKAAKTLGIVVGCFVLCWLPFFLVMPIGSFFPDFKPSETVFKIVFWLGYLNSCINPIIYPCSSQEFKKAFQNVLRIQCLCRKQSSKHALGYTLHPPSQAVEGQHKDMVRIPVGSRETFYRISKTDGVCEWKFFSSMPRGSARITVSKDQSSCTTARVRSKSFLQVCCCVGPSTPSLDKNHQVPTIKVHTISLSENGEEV
Procedure: (§4) […]. The compounds were tested at the concentration of 1×10^−6M.
(§5) Conditions and methodology (by reference to the literature) of cellular functional assays are given in Table 13 and the tests results for representative compounds are given in Table 14 (dopaminergic receptor D2), in Table 15 (dopaminergic receptor D3), in Table 16 (serotoninergic receptor 5-HT1A), in Table 17 (serotoninergic receptor 5-HT2A), in Table 18 (serotoninergic receptor 5-HT6), in Table 19 (serotoninergic receptor 5-HT7), in Table 20 (adrenergic α1 receptor), in Table 21 (adrenergic α2C receptor), in Table 22 (histaminergic H1 receptor) and in Table 23 (serotoninergic 5-HT2C receptor). In the Tables ag refers to agonism, and antag to antagonism).

[6] = biological target: serotoninergic 5-HT7 receptor (Homo sapiens, UniProt P34969); test: Binding assay 5-HT7 (h), [3H]LSD, CHO cells; design: expressed in transfected cells; host or cells: CHO cells; conditions: read-out: 5-HT7
In short: as §1

[7] = biological target: histaminergic H1 receptor (Homo sapiens, UniProt P35367); test: Binding assay H1 (h), [3H]pyrilamine, HEK-293 cells; design: expressed in transfected cells; host or cells: HEK-293 cells; conditions: read-out: H1 [%]
In short: as §1

[8] = biological target: serotoninergic 5-HT2A receptor (Homo sapiens, UniProt P28223); test: Cellular functional assay, serotoninergic 5-HT2A receptor (agonism/antagonism); type: cell-based; conditions: for activation at 1 µM: read-out: 5-HT2A -ag [%]; for inhibition at 1 µM: read-out: 5-HT2A -antag [%]
Procedure: as §4, §5

[9] = biological target: serotoninergic 5-HT6 receptor (Homo sapiens, UniProt P50406); test: Cellular functional assay, serotoninergic 5-HT6 receptor (agonism/antagonism); type: cell-based; conditions: for activation at 1 µM: agonist effect, percent of control specific agonist response, compounds tested at 1×10^−6M, read-out: 5-HT6-ag [%]; for inhibition at 1 µM: read-out: 5-HT6-antag. [%]
Procedure: as §2, §3

serotoninergic 5-HT6 receptor, sequence (P50406 whole entry): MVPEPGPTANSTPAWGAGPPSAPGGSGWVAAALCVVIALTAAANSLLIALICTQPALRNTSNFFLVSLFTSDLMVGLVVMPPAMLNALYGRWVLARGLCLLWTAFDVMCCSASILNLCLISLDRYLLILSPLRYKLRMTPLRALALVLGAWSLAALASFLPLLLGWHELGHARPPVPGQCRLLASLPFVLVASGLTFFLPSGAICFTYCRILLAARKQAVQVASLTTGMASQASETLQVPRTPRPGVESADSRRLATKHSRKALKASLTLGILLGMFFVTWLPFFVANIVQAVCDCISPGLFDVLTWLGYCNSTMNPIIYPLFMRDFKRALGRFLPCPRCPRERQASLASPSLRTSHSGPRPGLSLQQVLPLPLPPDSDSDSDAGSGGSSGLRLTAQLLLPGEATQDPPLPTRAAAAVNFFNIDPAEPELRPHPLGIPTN
serotoninergic 5-HT7 receptor, sequence (P34969 whole entry): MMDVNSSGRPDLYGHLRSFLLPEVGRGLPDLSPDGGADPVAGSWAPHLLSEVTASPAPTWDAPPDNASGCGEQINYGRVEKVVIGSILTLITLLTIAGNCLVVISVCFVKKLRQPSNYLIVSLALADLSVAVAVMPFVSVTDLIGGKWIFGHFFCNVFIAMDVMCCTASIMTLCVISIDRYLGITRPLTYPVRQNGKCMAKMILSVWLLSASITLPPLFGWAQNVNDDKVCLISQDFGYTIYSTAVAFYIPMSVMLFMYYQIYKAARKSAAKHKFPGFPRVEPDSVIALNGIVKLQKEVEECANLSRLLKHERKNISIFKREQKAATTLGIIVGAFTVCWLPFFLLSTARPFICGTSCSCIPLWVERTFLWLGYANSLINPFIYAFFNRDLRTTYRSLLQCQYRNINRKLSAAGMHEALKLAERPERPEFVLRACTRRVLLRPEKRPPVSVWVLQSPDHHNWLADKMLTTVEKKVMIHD
dopaminergic D3 receptor, sequence (P35462 whole entry): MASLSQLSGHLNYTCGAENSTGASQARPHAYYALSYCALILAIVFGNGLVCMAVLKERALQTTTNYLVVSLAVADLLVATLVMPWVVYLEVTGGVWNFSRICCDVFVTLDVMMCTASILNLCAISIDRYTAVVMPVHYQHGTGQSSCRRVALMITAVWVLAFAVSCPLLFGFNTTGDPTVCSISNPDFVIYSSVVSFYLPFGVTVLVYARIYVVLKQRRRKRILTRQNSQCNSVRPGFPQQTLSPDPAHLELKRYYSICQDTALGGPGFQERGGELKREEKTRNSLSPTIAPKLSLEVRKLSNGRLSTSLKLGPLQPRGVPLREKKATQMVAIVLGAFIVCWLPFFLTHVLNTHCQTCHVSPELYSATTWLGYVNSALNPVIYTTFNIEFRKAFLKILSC
dopaminergic D2 receptor, sequence (P14416 whole entry): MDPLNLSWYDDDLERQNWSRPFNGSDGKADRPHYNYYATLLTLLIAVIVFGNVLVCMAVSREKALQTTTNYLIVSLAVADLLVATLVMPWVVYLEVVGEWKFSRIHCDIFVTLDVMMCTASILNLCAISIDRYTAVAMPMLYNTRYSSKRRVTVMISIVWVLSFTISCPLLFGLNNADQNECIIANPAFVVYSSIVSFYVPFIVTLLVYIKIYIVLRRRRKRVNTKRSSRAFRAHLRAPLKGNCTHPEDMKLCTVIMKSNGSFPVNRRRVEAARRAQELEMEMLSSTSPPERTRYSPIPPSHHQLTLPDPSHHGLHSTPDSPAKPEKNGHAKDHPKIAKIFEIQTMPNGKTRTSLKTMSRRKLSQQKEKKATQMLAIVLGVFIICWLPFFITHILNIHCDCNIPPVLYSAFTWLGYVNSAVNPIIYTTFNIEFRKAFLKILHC
serotoninergic 5-HT2A receptor, sequence (P28223 whole entry): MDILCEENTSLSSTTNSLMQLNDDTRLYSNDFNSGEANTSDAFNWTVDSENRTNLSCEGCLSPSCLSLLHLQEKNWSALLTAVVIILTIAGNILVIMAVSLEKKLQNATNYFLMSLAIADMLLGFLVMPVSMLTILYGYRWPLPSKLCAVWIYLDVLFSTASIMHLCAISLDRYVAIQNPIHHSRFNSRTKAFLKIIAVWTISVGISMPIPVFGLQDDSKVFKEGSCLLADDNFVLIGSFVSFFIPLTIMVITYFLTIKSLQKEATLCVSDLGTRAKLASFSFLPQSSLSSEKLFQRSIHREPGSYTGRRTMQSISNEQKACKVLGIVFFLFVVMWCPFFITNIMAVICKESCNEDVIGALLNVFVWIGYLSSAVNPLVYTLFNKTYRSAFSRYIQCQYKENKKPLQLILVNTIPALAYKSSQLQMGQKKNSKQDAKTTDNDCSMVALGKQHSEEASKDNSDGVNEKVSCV
T1 sequence (P20309 whole entry): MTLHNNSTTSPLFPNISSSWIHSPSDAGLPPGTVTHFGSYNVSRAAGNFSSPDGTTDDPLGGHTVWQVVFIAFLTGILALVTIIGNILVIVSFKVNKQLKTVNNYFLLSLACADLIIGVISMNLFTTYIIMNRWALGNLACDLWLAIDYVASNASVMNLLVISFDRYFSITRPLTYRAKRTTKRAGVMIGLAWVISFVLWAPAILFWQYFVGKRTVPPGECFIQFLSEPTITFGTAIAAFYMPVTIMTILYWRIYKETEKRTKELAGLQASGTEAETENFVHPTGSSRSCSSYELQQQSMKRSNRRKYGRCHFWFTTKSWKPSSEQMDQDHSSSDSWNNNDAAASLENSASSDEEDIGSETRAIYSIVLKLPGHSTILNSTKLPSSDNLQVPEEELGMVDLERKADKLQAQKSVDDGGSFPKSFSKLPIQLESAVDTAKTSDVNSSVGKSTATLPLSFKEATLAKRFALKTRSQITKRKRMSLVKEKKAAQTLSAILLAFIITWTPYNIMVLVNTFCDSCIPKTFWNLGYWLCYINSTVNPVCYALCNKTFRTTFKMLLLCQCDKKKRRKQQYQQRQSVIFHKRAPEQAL
histaminergic H1 receptor, sequence (P35367 whole entry): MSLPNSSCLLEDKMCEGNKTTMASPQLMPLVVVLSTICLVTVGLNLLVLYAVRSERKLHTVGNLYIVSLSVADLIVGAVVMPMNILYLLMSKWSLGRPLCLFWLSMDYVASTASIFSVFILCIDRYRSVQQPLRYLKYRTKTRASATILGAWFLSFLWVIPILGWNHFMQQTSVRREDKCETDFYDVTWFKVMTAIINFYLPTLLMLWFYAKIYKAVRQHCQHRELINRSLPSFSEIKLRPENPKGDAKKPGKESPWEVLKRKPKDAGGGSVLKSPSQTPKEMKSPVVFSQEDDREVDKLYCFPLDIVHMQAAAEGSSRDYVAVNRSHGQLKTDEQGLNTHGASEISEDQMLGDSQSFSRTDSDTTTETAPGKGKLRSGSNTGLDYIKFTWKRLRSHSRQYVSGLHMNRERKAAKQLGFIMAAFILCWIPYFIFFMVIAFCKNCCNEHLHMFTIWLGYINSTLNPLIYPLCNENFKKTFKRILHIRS

| Compound | inhibition at 1 µM [1] | inhibition at 1 µM [2] | activation at 1 µM [3] | inhibition at 1 µM [3] | inhibition at 1 µM [4] | activation at 1 µM [4] | activation at 1 µM [5] | inhibition at 1 µM [5] | inhibition at 1 µM [6] | inhibition at 1 µM [7] | activation at 1 µM [8] | inhibition at 1 µM [8] | activation at 1 µM [9] | inhibition at 1 µM [9] |
| --- | --- | --- | --- | --- | --- | --- | --- | --- | --- | --- | --- | --- | --- | --- |
| O=S(=O)(NCCCCN1CCN(c2cccc3[nH]ccc23)CC1)c1cnc2ccccn12 [Compound 30, N-{4-[4-(1H-Indol-4-yl)piperazin-1-yl]butyl}-imidazo[1,2-a]pyridine-3-sulphonamide] | 66% | 11% | 43% | 97% | 35% | 52% | 0% | 97% | 96% | 40% |  |  |  |  |
| O=S(=O)(NCCCCN1CCN(c2cccc3[nH]ccc23)CC1)c1ccccc1 [Compound 27, N-{4-[4-(1H-Indol-4-yl)piperazin-1-yl]butyl}benzenesulphonamide] | 46% | -1% | 40% | 100% |  |  | 1% | 100% | 92% | 27% |  |  |  |  |
| O=c1[nH]c2cccc(N3CCN(CCCNS(=O)(=O)c4ccc5ccccc5c4)CC3)c2[nH]1 [Compound 424, N-[3-[4-(2-oxo-1,3-dihydrobenzimidazol-4-yl)piperazin-1-yl]propyl]naphthalene-2-sulphonamide] | 7% | 8% | 44% | 97% | 18% | 70% | 39% | 76% | 95% | 28% |  |  |  |  |
| O=c1[nH]c2ccc(S(=O)(=O)NCCCCN3CCN(c4noc5ccccc45)CC3)cc2o1 [Compound 16, N-(4-(4-(1,2-Benzoxazol-3-yl)piperazin-1-yl)butyl)-2-oxo-3H-1,3-benzoxazole-6-sulphonamide] | -1% | 53% | 4% | 98% |  |  | 0% | 100% | 99% | 97% | -1% | 98% | 0% | 50% |
| O=S(=O)(NCCCCN1CCN(c2cccc3[nH]ccc23)CC1)c1cccc(Cl)c1 [Compound 113, N-[4-[4-(1H-Indol-4-yl)piperazin-1-yl]butyl]-3-chlorobenzenesulphonamide] | 29% | 10% | 42% | 94% | 30% | 39% | 1% | 100% | 97% | 60% |  |  |  |  |
| Cc1cccc(S(=O)(=O)NCCCCN2CCN(c3nsc4ccccc34)CC2)c1 [Compound 3, N-(4-(4-(1,2-Benzothiazol-3-yl)piperazin-1-yl)butyl)-3-methylbenzenesulphonamide] | 13% | 77% |  |  |  |  |  |  | 97% | 94% |  |  |  | 22% |
| O=S(=O)(NCCCCN1CCN(c2cccc3[nH]ccc23)CC1)c1ccc(F)cc1 [Compound 359, 4-Fluoro-N-[4-[4-(1H-indol-4-yl)piperazin-1-yl]butyl]benzenesulphonamide] | 63% | 12% | 39% | 96% | 79% | 25% | 1% | 100% | 95% | 60% |  |  |  |  |
| O=S(=O)(NCCCCN1CCN(c2noc3ccccc23)CC1)c1c[nH]c2ncccc12 [Compound 89, N-[4-[4-(1,2-Benzoxazol-3-yl)piperazin-1-yl]butyl]-1H-pyrrolo[2,3-b]pyridine-3-sulphonamide] | 22% | 34% |  |  | 69% | -18% | -1% | 100% | 98% | 85% | -2% | 94% | 0% | 83% |
| O=S(=O)(NCCCCN1CCN(c2noc3ccccc23)CC1)c1cccc2ccccc12 [Compound 13, N-(4-(4-(1,2-Benzoxazol-3-yl)piperazin-1-yl)butyl)naphthalene-1-sulphonamide] | -1% | 34% | 2% | 95% |  |  | 0% | 100% | 100% | 84% | 2% | 100% | 1% | 56% |
| O=S(=O)(NCCCCN1CCN(c2cccc3[nH]ccc23)CC1)c1cccc(F)c1 [Compound 28, 3-Fluoro-N-{4-[4-(1H-indol-4-yl)piperazin-1-yl]butyl}benzenesulphonamide] | 50% | 6% | 49% | 105% | -2% | 59% |  |  | 92% | 57% |  |  | 0% | 53% |
| O=c1[nH]c2cccc(N3CCN(CCCNS(=O)(=O)c4cccc5ccccc45)CC3)c2[nH]1 [Compound 423, N-[3-[4-(2-oxo-1,3-dihydrobenzimidazol-4-yl)piperazin-1-yl]propyl]naphthalene-1-sulphonamide] | -1% | 9% | 41% | 96% | 22% | 70% | 16% | 70% | 88% | 16% |  |  |  |  |
| O=S(=O)(NCCCCN1CCN(c2cccc3[nH]ccc23)CC1)c1ccc2cc(Cl)ccc2c1 [Compound 358, 6-Chloro-N-[4-[4-(1H-indol-4-yl)piperazin-1-yl]butyl]naphthalene-2-sulphonamide] | 17% | 62% | 30% | 84% | 35% | 47% |  |  | 94% | 74% | -1% | 57% |  |  |
